Measurements: patent publication US7033829B2, “Method to inhibit cell growth using oligonucleotides” (Trustees of Boston University, priority 2000, dated 2006)
Oligonucleotides are written 5' to 3', each unit as a sugar letter and its base; * is a phosphorothioate linkage, no mark a phosphodiester; rarer units and linkages stand in square brackets, end groups in braces. Plain capitals give the bases only. d = 2'-deoxy (DNA); {P} = phosphate

Experiments:
caspase-3 = experiment: Caspase-3 activity in Jurkat cells; format: cell-based, human; conditions: 40 μM
Procedure: Duplicate cultures of Jurkat cells were cultured and treated with oligonucleotides as described above. At 48, 72 and 96 hours of treatment, cells were collected by centrifugation, washed and then the pellet lysed by repeated cycles of freeze-thawing. The lysate was then clarified by centrifugation and the supernatant used for protein analysis and Caspase-3 activity assay using the components and instructions of the Colorimetric CaspACE Assay System from Promega (Madison, Wis.). The assay uses the substrate Ac-DEVD-pNA and calorimetrically measures release of free pNA. Caspase activity is expressed as pmol of pNA produced/hour/μg protein.
Apoptosis was also detected by the DNA end-labeling TUNEL assay. Jurkat cells were treated with 40 μM oligonucleotides for 72 hours. Cells were then collected and the TUNEL assay was carried out. […] The activation of caspase-3, another marker of apoptosis, was also examined. Duplicate cultures of Jurkat cells were cultured and treated with oligonucleotides as described above for 48, 72 and 96 hours and caspase-3 activity was measured. The activity of caspase-3 was 50% higher after 48 hours of treatment with the telomere overhang homolog, compared to controls, and 3–4 fold higher in these cells at 72 and 96 hours (FIG. 27). Thus, the oligonucleotide homologous to the telomere 3′ overhang specifically induces an S phase arrest and apoptosis in these cells.

[1] = system: human melanoma line MM-AN; experiment: FACS analysis of MM-AN melanoma cells; format: cell-based; conditions: 40 μM
Procedure: Proteins were analyzed by denaturing polyacrylamide gel electrophoresis (SDS-PAGE), using 10% polyacrylamide, and western blot analysis was done with an E2F1-specific monoclonal antibody (KH95 Santa Cruz Biotechnology, Santa Cruz, Calif.), and p73 analyzed using a polyclonal antibody (AB-4 from Oncogene Research Products, San Diego, Calif.). […] In order to determine the contribution of p73 to cell death, MM-AN melanoma cells were stably transfected with a dominant negative p73 (p73DN) (Irwin et al., Nature 402:645–648) construct or empty vector as a control (p73^DN-containing vector a gift from Dr. William Kaelin, Dana Farber Institute, Boston) and paired cultures were supplemented with 40 μM 11mer-1 or diluent alone, then harvested at 72 hours for FACS analysis. […] The above-mentioned differentiation markers are expressed in normal human melanocytes. It appears that the loss of expression of these antigens is a mechanism that a subset of human melanomas uses to escape immunosurveillance defenses. Several peptides from these antigens are targets of tumor infiltrating cytotoxic lymphocytes. Encouraging results have been obtained in vivo with different vaccination strategies using antigenic peptides from the above antigens.

[2] = system: serine 15-phosphorylated p53, E2F1 (cells lacking functional ATM); experiment: Western blot of p53 serine 15 phosphorylation and E2F1 in AT fibroblasts; format: cell-based, human; conditions: 40 μM; 48 hours
Procedure: Because the serine 15 site on p53 is known to be phosphorylated in an ATM-dependent manner after exposure to ionizing radiation (IR), we wished to examine the role of ATM in E2F1 induction and p53 serine 15 phosphorylation in response to the 11 mer-1. Fibroblasts from a patient with ataxia telangiectasia (AT) known to lack functional ATM protein, and age-matched normal control fibroblasts (N) were treated with either diluent, 40 μM 11mer-1, sham irradiation or IR (10 Gy). Cells were collected 3 hours (sham or IR) or 48 hours (diluent, 11mer-1) for western blot analysis to detect serine 15-phosphorylated p53 and total p53. In normal fibroblasts, the 11mer-1 induced a 10–15 fold increase in the level p53 phosphorylation on serine 15 compared to diluent-treated controls.

NBS fibroblasts = experiment: FACS analysis of NBS fibroblasts; format: cell-based, human; conditions: 40 μM
Procedure: Fibroblasts were obtained from an NBS (Nijmegen breakage syndrome) patient, in which p95/Nbs1 was below the level of detection. Preconfluent cultures or normal (control) fibroblasts and NBS fibroblasts were treated with 40 μM of the oligonucleotides and collected after 48 hours for FACS analysis (FIGS. 34A–34H). The averages and standard deviations were calculated from triplicate cultures of each condition. FACS profiles from one representative experiment of three are shown.

[3] = system: basal keratinocytes (epidermal cell proliferation); experiment: Epidermal labeling index after topical application; format: in vivo, Guinea pigs; conditions: 100 μM topical, three days, mean ± SD
Procedure: Guinea pigs received one or two daily topical applications of 100 μM pTpT, or vehicle alone as control, for three days. On the fourth day, punch biopsies were obtained and maintained for 7 or 8 hours in primary keratinocyte medium supplemented with 10 μCi/ml ^3H-thymidine (specific activity 9.0 Ci/m mole, NEN). Proliferating cells are expected to incorporate the ^3H-thymidine into newly synthesized DNA. Tissues were then rinsed with cold medium and fixed in 10% phosphate buffered formalin. After a series of dehydration steps, tissues were embedded in paraffin. 6 μm sections were cut and mounted onto glass slides, dipped in NTB-2 Nuclear Track emulsion and kept in the dark at 4° C. for 7 days. Sections were developed in Kodak D-19 developer and stained with hematoxylin and eosin. Labeling index, a measure of DNA replication and therefore cell proliferation, was measured by calculating the percentage of labeled nuclei among 100 basal keratinocytes.

T cell proliferation = experiment: Allogenic mixed lymphocyte reaction with keratinocyte culture medium; format: cell-based, human; conditions: >10 kD components of culture medium from 72 hour sample
Procedure: The immunomodulatory effect of pTpT was tested in vitro using human keratinocytes. Duplicate cultures of primary human keratinocytes were treated with pTpT, diluent or UVB irradiation (200 J/m^2) or sham irradiation. Cells were collected at various times after treatment and analyzed for IL-10 protein by ELISA and for IL-10 mRNA by RT-PCR. An increase in IL-10 mRNA was detected after 6 hours in irradiated cells and after 48 hours in pTpT treated cells. An increase in IL-10 protein of 18 pg/ml was detected 24 hours after irradiation and 15±2 pg/ml 72 hours after treatment with pTpT. […] In the allogenic MLR, T cell activation is measured as lymphocyte proliferation, measured by ^3H-thymidine incorporation. IL-10 activity of culture medium from the 72 hour pTpT sample was measured by addition of the >10 kD components (containing the 18 kD IL-10 protein). […] Thus, like UVB irradiation, pTpT induces IL-10 in human keratinocytes which is likely to cooperate with TNFα to inhibit contact hypersensitivity in pTpT treated skin.

Substance | caspase-3 activity higher compared to controls (caspase-3; 72 and 96 hours) | caspase-3 activity higher compared to controls (caspase-3; 48 hours) | cell cycle [1] | apoptosis rate of cells expressing p73^DN ([1]; 72 hours) | apoptosis (sub-G0/G1 DNA content) ([1]; by 72 hours) | increase in p53 phosphorylation on serine 15 [2] | proliferation compared to diluent-treated NBS cells (NBS fibroblasts) | increase in the number of S-phase cells compared to diluent (NBS fibroblasts; 48 hours, not statistically significant (p<0.08)) | Labeling Index (percentage of labeled nuclei among 100 basal keratinocytes) ([3]; 1 daily application) | Labeling Index (percentage of labeled nuclei among 100 basal keratinocytes) ([3]; 2 daily applications) | reduction in T cell proliferation (T cell proliferation)
pGTTAGGGTTAG (DNA {P}-dGdTdTdAdGdGdGdTdTdAdG) [SEQ ID NO: 5] | 3–4 fold | 50% | first entered an S-phase arrest | at half the rate of control cells | a substantial portion of the cells were undergoing apoptosis | < 50% | minimally affected | 8% |  |  | 
thymidine dinucleotide [pTpT] |  |  |  |  |  |  |  |  | 2 ± 0 | 1.5 ± 0.7 | 80±5%
